Experimental data as given in PubChem BioAssay (NCI).
Where “and” joins values, the source holds several entries; their conditions need not be identical. Equal entries are not always repeated.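 Five concentrations, 48 hours, 96-well plates. GI50: concentration for 50% inhibition of growth. At the TGI there is no net growth.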

What was measured:
Assay in all cases: NCI-60 cell line screen, 48 h
[1] = test system: U251 CNS
[2] = test system: ACHN renal
[3] = test system: RPMI-8226 leukemia
[4] = test system: EKVX NSCLC
[5] = test system: OVCAR-3 ovarian
[6] = test system: OVCAR-5 ovarian
[7] = test system: MALME-3M melanoma
[8] = test system: COLO 205 colon
[9] = test system: SK-MEL-5 melanoma
[10] = test system: RXF 393 renal

| SMILES | GI50 [1] [µM] | TGI [1] | GI50 [2] [µM] | TGI [2] [µM] | GI50 [3] [µM] | TGI [3] [µM] | GI50 [4] [µM] | TGI [4] | GI50 [5] [µM] | TGI [5] | GI50 [6] [µM] | TGI [6] | GI50 [7] [µM] | TGI [7] | GI50 [8] [µM] | TGI [8] [µM] | GI50 [9] [µM] | TGI [9] | GI50 [10] [µM] | TGI [10] |
| --- | --- | --- | --- | --- | --- | --- | --- | --- | --- | --- | --- | --- | --- | --- | --- | --- | --- | --- | --- | --- |
| CC1(C)[C@@H](O[C@@H]2OC[C@@H](O[C@@H]3O[C@H](CO)[C@@H](O)[C@H](O)[C@H]3O[C@@H]3OC[C@@H](O)[C@H](O)[C@H]3O)[C@H](O)[C@H]2O[C@@H]2O[C@H](CO)[C@@H](O)[C@H](O)[C@H]2O)CC[C@]2(C)[C@H]3CC[C@]45OC[C@@]6(CC[C@](C)(C=O)C[C@H]64)[C@H](O)C[C@@]5(C)[C@]3(C)CC[C@@H]12 | 0.99 | 2.01 µM | 0.824 | 1.54 | 1.12 | 2.56 | 0.945 | 1.96 µM | 1.01 | 2.06 µM | 0.834 | 1.66 µM | 0.879 | 1.74 µM | 1.02 | 2.01 | 2.8 | 5.36 µM | 0.892 | 2.07 µM |
| COCCCNC(=O)CC(=O)NCCCOC | – | > 100 µM | – | > 100 | – | > 100 | – | > 100 µM | – | > 100 µM | – | > 100 µM | – | > 100 µM | – | > 100 | – | > 100 µM | – | > 100 µM |
| CN(C)c1ccc(Nc2cc(-c3cccc(OC(F)(F)F)c3)nc3ccc(N4CCCC4)cc23)cc1 | 1.74 | 3.16 µM | 2.05 | 4.36 | 1.87 | 4.48 | 2.16 | 6.05 µM | 1.74 | 3.14 µM | 1.79 | 3.37 µM | 1.66 | 3.11 µM | 2.56 | 9.02 | 1.82 | 3.3 µM | 1.66 | 3.47 µM |
| CN(CC(=O)N(Cc1ccc(C2CCCCC2)cc1)c1ccc(C(=O)O)c(O)c1)S(=O)(=O)c1c(F)c(F)c(F)c(F)c1F | 1.81 | 3.82 µM | 15.3 | 28.8 | 2.28 | 6.37 | 15.7 | 29.8 µM | 9.95 | 23.3 µM | 17.5 | 32.4 µM | 2.89 | 12.3 µM | 12.7 | 26.5 | 14 | 27.3 µM | 1.89 | 3.76 µM |
| COc1cc2c(cc1Nc1nc(Nc3ccsc3C(N)=O)c3cc[nH]c3n1)N(C(=O)CN(C)C)CCC2(C)C | 3.09 | 6.25 µM | 2.56 | 5.53 | 1.09 | 5.21 | 0.453 | 4.97 µM | 2.05 | 5.17 µM | 0.0412 | 3.67 µM | 1.48 | 5.62 µM | < 0.0025 | 0.887 | 0.797 | 3.89 µM | 1.67 | 5.09 µM |
| CC(=O)c1ccc(NC(=O)C(=O)Nn2c(=S)[nH]c3ccccc3c2=O)cc1 | – | > 100 µM | – | > 100 | – | > 100 | – | > 100 µM | – | > 100 µM | – | > 100 µM | – | > 100 µM | – | > 100 | – | > 100 µM | – | > 100 µM |
| CCCCCCCCCCCC1CCCC(C)N1 (stereo not drawn) | 4.53 | 18.2 µM and 128 µM | 11.4 | 25.5 | 1.66 | – | 12.2 | 26.3 µM and 119 µM | 12 | 28.7 µM and 121 µM | 12.5 | 28.5 µM and 162 µM | 8.03 | 22.7 µM and 166 µM | 1.56 | – | 8.15 | 21.4 µM and 93.7 µM | 15.2 | 35.6 µM and 108 µM |
| N#Cc1c(N)nc(N2CCOCC2)c(C#N)c1-c1cccnc1 | > 100 | > 100 µM | 48.7 | > 100 | 45.5 | > 100 | 83.8 | > 100 µM | 26.6 | 89.7 µM | 25.7 | 73.5 µM | 37.2 | 91.4 µM | 36 | 96.2 | > 100 | > 100 µM | > 100 | > 100 µM |
| CCNC(=O)c1cc2c(-c3cc(C(C)(C)O)ccc3Oc3c(C)cc(F)cc3C)cn(C)c(=O)c2[nH]1 | 2.09 | 16.7 µM | 2.15 | 12.1 | 0.605 | 8.98 | 2.26 | 16.4 µM | 1.93 | 11.9 µM | 1.63 | 16.2 µM | 2.15 | 15.2 µM | 0.507 | 2.84 | 2.09 | 6.89 µM | 1.81 | 5.2 µM |
| N#CSCC1CC(O)(c2ccccc2)CC(c2ccc(F)cc2)O1 (stereo not drawn) | 1.7 | 3.13 µM | 2.1 | 6.43 | 1.64 | 4.65 | 1.94 | 5.43 µM | 1.45 | 2.76 µM | 2.32 | 5.28 µM | 2.14 | 6.44 µM | 2.02 | 4.25 | 1.74 | 3.26 µM | 1.72 | 3.47 µM |
| COc1ccc2c(c1)C(=O)c1c-2c(Nc2ccc(Cl)cc2)nc2ccccc12 | 5.51 | 18.4 µM | 4.23 | 16.3 | 24.5 | > 100 | 10.1 | 95.3 µM | 33.6 | > 100 µM | 22.3 | 84.1 µM | 11 | 42.4 µM | 34.8 | > 100 | 2.84 | 13.2 µM | 2.06 | 6.35 µM |
| O=C(O)/C(=C/C=C/c1ccccc1)c1csc(-c2nc(/C(=C\C=C\c3ccccc3)C(=O)O)cs2)n1 | – | > 100 µM | – | 92.5 | – | 65.3 | – | > 100 µM | – | 57.5 µM | – | > 100 µM | – | 60 µM | – | 51.3 | – | 86.3 µM | – | 82.4 µM |
| N#C/C(=C\c1cc(Cl)cc(Cl)c1)c1ccccn1 | – | > 100 µM | – | > 100 | – | > 100 | – | 60 µM | – | > 100 µM | – | > 100 µM | – | > 100 µM | – | > 100 | – | > 100 µM | – | 47.2 µM |
